Assay results from ChEMBL document CHEMBL1201862, “PubChem BioAssay data set” (2004).
Calls of active or inactive are those of the source.

Experiments:
[1] = target: Phospholipase A2 (Homo sapiens, UniProt P04054); format: functional;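 note: confirmatory dose-response counterscreen on phospholipase A2, testing hits that came from an ultra-high-throughput screen for ATG4B inhibitors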
[2] = target: T1, Cysteine protease ATG4B (Homo sapiens, UniProt Q9Y4P1); format: functional;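 note: Fluorescence-based dose-response confirmation assay measuring inhibition of ATG4B activity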
T1 sequence (Q9Y4P1 whole entry): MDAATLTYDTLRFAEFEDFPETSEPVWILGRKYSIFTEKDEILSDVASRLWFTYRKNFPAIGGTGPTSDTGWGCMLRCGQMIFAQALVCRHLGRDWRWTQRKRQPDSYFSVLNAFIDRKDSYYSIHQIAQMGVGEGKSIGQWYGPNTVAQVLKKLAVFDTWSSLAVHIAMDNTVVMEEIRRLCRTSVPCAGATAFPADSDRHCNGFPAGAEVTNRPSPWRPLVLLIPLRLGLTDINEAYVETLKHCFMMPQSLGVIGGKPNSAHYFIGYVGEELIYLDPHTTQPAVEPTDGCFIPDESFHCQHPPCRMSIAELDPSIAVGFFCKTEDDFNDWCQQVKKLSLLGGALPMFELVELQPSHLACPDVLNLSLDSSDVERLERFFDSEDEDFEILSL

[3] = target: T2, Sentrin-specific protease 8 (Homo sapiens, UniProt Q96LD8); format: functional;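 note: luminescence read-out of SENP8 inhibition, dose-response confirmation following an ultra-high-throughput screen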
T2 sequence (Q96LD8 whole entry): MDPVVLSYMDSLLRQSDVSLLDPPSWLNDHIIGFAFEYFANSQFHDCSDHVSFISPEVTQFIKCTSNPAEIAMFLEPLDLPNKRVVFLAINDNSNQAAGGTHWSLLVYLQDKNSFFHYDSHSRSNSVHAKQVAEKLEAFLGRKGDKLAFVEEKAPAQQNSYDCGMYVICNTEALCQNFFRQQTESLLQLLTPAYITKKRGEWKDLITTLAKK

[4] = target: T3, Caspase-3 (Homo sapiens, UniProt P42574); format: functional;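 note: Dose-response selectivity test against caspase-3 for candidate inhibitors of sentrin-specific proteases (SENPs)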
T3 sequence (P42574 whole entry): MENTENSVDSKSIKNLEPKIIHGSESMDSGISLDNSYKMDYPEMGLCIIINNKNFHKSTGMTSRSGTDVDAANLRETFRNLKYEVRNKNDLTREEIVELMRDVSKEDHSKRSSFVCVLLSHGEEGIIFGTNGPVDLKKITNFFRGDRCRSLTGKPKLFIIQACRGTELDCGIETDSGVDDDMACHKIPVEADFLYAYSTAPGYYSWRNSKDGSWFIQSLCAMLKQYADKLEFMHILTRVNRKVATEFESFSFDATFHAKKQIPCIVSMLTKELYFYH

[5] = target: T4, Sentrin-specific protease 7 (Homo sapiens, UniProt Q9BQF6); format: functional;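 note: Luminescence-based dose-response confirmation of ultra-high-throughput screening hits, measuring inhibition of SENP7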
T4 sequence (Q9BQF6 whole entry): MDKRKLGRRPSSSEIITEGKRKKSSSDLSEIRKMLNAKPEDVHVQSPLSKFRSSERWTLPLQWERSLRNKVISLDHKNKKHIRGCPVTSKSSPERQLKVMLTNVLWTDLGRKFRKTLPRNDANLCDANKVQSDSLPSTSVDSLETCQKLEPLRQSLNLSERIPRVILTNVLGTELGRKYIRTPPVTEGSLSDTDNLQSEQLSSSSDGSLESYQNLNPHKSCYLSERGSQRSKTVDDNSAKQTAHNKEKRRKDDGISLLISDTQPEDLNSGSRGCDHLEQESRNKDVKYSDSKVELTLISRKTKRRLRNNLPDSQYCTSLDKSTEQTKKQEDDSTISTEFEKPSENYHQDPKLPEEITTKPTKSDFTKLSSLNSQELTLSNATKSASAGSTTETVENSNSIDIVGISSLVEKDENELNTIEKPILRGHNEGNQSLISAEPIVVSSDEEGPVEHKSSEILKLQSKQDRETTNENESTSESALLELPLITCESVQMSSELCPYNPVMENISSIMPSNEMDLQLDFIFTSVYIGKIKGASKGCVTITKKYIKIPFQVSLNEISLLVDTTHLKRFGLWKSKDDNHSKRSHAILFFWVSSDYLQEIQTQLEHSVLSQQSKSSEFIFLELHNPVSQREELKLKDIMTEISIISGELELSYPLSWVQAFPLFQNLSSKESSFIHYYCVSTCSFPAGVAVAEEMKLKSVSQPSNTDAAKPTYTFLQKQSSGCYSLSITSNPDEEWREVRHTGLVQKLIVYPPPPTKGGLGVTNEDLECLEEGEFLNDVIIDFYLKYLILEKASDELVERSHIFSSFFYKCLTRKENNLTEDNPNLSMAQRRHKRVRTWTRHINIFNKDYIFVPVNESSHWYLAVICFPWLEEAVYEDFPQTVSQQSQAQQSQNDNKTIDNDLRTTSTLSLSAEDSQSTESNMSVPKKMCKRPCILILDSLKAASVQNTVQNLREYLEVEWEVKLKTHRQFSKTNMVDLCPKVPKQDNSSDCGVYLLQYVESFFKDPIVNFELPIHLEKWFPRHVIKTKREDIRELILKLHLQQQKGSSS

[6] = target: T5, Sentrin-specific protease 6 (Homo sapiens, UniProt Q9GZR1); format: functional;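 note: Luminescence-based dose-response confirmatory assay of SENP6 inhibition, following up an ultra-high-throughput screen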
T5 sequence (Q9GZR1 whole entry): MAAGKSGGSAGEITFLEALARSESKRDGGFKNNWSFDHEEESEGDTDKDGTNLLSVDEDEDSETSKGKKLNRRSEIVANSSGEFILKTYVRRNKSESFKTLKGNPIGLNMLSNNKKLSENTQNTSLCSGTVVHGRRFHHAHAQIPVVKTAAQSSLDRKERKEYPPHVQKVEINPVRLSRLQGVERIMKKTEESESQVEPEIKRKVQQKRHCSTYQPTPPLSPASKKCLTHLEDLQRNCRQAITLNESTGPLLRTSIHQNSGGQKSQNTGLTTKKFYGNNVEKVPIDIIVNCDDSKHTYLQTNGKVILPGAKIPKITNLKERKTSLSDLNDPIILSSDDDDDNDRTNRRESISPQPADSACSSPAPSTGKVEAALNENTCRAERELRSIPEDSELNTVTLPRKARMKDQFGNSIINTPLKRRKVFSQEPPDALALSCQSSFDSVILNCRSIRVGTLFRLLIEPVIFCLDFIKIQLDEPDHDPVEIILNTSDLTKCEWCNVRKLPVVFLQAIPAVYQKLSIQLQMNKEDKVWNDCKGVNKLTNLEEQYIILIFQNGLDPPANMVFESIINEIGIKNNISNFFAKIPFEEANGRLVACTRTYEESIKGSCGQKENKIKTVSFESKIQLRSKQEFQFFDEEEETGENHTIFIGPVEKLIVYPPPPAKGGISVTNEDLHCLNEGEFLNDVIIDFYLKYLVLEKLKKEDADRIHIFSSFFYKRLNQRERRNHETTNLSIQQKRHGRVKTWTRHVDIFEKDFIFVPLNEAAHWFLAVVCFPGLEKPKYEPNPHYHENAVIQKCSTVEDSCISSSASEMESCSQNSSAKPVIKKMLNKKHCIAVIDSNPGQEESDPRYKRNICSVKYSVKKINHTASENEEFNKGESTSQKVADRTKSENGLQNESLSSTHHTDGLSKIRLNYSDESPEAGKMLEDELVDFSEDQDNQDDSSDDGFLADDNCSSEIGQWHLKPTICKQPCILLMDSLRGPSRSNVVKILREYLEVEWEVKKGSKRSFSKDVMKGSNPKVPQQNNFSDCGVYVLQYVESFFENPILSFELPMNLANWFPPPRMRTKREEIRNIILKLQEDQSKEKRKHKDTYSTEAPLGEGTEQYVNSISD

[7] = cAMP pathway inhibition in counterscreen cell line – TR-FRET cAMP detection, counter-screen for MC4R biased antagonist project, dose response (AID 602305); format: functional, cell-based;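 note: U2OS cells stimulated with forskolin near its EC80 as the cAMP inducer; potency is for inhibition of forskolin-stimulated cAMP signaling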
[8] = target: Melanocortin receptor 4 (Homo sapiens, UniProt P32245); test: inhibitors of MC4R cAMP signaling – cell-based, TR-FRET, biased antagonists, dose response (AID 602298); format: functional;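 note: antagonist potency against agonist-stimulated cAMP production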
[9] = Luminescence Cell-Based Dose Retest to Confirm Inhibitors of Cancer Stem Cells. [Related pubchem assays (depositor defined):AID2717, AID2721]; format: functional; conditions: Homo sapiens
[10] = target: T6, Orexin/Hypocretin receptor type 1 (Homo sapiens, UniProt O43613); test: Homogeneous Time Resolved Fluorescence (HTRF)-based cell-based high throughput dose response assay for antagonists of the orexin 1 receptor (OX1R; HCRTR1). [Related pubchem assays (depositor defined):AID434989, AID435008, AID463079, AID485270, AID492963, AID492964, AID492965, AID493232, AID504717, AID504718]; format: functional
T6 sequence (O43613 whole entry): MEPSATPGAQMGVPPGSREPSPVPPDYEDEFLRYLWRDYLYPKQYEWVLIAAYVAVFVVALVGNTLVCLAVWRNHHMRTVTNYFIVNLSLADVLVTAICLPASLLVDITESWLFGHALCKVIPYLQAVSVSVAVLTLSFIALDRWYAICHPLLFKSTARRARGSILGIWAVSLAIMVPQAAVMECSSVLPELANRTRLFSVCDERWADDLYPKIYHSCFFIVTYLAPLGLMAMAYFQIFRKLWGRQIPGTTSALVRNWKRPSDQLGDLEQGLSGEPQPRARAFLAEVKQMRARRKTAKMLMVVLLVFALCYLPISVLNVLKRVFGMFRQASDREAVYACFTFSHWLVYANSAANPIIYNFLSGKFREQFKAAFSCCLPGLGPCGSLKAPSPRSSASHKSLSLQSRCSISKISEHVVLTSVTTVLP

[11] = test system: CHO-K1; test: (§1) Counterscreen for antagonists of the orexin 1 receptor (OX1R; HCRTR1): Homogeneous time resolved fluorescence (HTRF)-based cell-based dose response assay to identify antagonists of the parental CHO-K1 cell line. [Related pubchem assays (depositor defined):AID434989, AID435008, AID463079, AID485270, AID492963, AID492964, AID492965, AID493232, AID504699, AID504701]; format: functional; conditions: Cricetulus griseus
[12] = target: T6, Orexin/Hypocretin receptor type 1; test: Fluorescence-based cell-based high throughput dose response assay for antagonists of the orexin 1 receptor (OX1R; HCRTR1). [Related pubchem assays (depositor defined):AID434989, AID435008, AID463079, AID485270, AID492963, AID492964, AID492965, AID493232, AID504717, AID504718]; format: functional
[13] = target: T7, Orexin receptor type 2 (Homo sapiens, UniProt O43614); test: Counterscreen assay for antagonists of the orexin 1 receptor (OX1R; HCRTR1): Homogeneous Time Resolved Fluorescence (HTRF)-based cell-based dose response assay for antagonists of the orexin 2 receptor (OX2R; HCRTR2), run by assay provider.; format: functional
T7 sequence (O43614 whole entry): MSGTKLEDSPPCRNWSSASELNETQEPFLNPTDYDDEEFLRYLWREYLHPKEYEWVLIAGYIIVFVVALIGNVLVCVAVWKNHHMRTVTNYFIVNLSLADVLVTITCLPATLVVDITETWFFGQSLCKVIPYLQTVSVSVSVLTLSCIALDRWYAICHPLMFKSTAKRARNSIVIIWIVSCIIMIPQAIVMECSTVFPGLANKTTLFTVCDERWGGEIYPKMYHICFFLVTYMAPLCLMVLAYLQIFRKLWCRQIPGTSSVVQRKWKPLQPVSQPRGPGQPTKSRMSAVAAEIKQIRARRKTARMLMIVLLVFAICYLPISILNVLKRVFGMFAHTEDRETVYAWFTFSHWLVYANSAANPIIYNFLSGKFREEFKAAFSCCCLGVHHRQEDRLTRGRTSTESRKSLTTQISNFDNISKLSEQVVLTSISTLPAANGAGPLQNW

[14] = as §1, with “Fluorescence-based” for “Homogeneous time resolved fluorescence (HTRF)-based”, “cell-based high throughput” for “cell-based”, “CHO” for “CHO-K1”; format: functional
[15] = target: T7, Orexin receptor type 2; test: Counterscreen assay for antagonists of the orexin 1 receptor (OX1R; HCRTR1): Fluorescence-based cell-based dose response assay for antagonists of the orexin 2 receptor (OX2R; HCRTR2), run by assay provider.; format: functional
[16] = test system: HeLa; test: ATP-based viability loss in HeLa cells – cell-based, CellTiter-Glo luminescence, cherry-pick samples, cytotoxicity control for MITF activator project, dose response (AID 540259); format: functional; conditions: Homo sapiens

Sequence of Melanocortin receptor 4 (P32245 whole entry): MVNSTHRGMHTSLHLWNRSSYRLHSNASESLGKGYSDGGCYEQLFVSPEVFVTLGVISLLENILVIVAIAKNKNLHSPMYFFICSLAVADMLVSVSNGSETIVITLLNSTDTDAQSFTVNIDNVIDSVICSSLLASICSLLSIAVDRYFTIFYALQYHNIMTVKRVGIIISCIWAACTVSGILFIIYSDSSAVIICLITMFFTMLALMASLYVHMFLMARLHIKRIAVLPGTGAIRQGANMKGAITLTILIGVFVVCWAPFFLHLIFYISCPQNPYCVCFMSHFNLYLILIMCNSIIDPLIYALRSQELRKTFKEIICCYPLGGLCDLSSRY
Sequence of Phospholipase A2 (P04054 whole entry): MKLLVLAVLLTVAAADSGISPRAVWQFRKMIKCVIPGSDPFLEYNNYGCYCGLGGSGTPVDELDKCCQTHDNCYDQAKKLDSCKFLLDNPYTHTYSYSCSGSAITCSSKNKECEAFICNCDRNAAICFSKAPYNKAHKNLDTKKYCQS

Cc1oc(-c2ccccc2Cl)nc1C[S+]([O-])CC(=O)NCc1ccccc1Cl (stereo not given)
IC50 [1]: 7.47 µM (active)
IC50 [2]: 16.8 µM (active)

CCOC(=O)c1c(C)[nH]c(C(=O)OCC(=O)c2ccccc2)c1C
IC50 [3]: 26.4 µM (active)
IC50 [4]: 24.3 µM (active)
IC50 [5]: 7.72 µM (active)
IC50 [6]: 24.4 µM (active)

O=C(Nc1ccccc1N1CCCCC1)c1ccc(Cl)c([N+](=O)[O-])c1
IC50 [7]: > 64.6 µM (inactive)
IC50 [8]: > 64.6 µM (inactive)
AC50 [9]: 3.19 µM (active)

O=C(Nc1nnc(CCc2ccccc2)s1)c1ccccc1F
IC50 [3]: > 100 µM (inactive)
IC50 [4]: 18.9 µM (active)
IC50 [5]: 16.8 µM (active)
IC50 [6]: > 100 µM (inactive)

COc1cc(-c2nc3ccc4ccccc4c3c3c2CCC3)cc(OC)c1OC
IC50 [7]: > 64.6 µM (inactive)
IC50 [8]: 43.1 µM (inactive)

Cc1nc2cc(-c3nc4ccccc4o3)ccc2[nH]1
IC50 [10]: 1.06 µM (active)
IC50 [11]: > 66.2 µM (inactive)
IC50 [12]: 6.1 µM (active)
IC50 [13]: > 50 µM (inactive)
IC50 [14]: > 49.8 µM (inactive)
IC50 [15]: > 88.8 µM (inactive)

Cc1c(NS(=O)(=O)c2cccc(C(=O)OCC(=O)N(C)C3CCCCC3)c2)c(=O)n(-c2ccccc2)n1C
IC50 [10]: 0.142 µM (active)
IC50 [11]: > 66.2 µM (inactive)
IC50 [12]: 2.42 µM (active)
IC50 [13]: 0.8 µM (active)
IC50 [14]: > 49.7 µM (inactive)
IC50 [15]: 1.2 µM (active)

COc1ccc(Cl)cc1-n1c(=S)sc2c(O)nc(SCC(=O)NCCC(C)C)nc21
IC50 [1]: 13.8 µM (active)
IC50 [2]: 19.5 µM (active)

O=C(N/N=C/C(Br)=C\c1ccccc1)c1cccs1
IC50 [3]: > 100 µM (inactive)
IC50 [4]: 31.6 µM (active)
IC50 [5]: 5.94 µM (active)
IC50 [6]: > 100 µM (inactive)

COc1cccc(-c2cc(C(=O)Nc3ccccc3SC)no2)c1
AC50 [16]: 97.5 µM (active)
IC50 [10]: 1.91 µM (active)
IC50 [11]: > 66.2 µM (inactive)
IC50 [12]: 3.59 µM (active)
IC50 [13]: > 50 µM (inactive)
IC50 [14]: > 49.7 µM (inactive)
IC50 [15]: > 88.8 µM (inactive)
